Read-outs that look alike come from different tables or passages of the source.
Assays:
mTOR (FRAP) = mTOR (FRAP) (Homo sapiens, UniProt P42345); settings: cited from earlier work
ATM = target: T1, ATM (Homo sapiens, UniProt Q13315); assay: Streptavidin-sepharose pull-down from nuclear extract, ATM; assay type: binding; settings: HeLa nuclear extract; 150 μM wortmannin or 1 mM ATP
T1 construct: we used nuclear extract for our pull-down experiments; endogenous in cells
Method: (§1) For the competition with ATP, ATP was directly added to a final concentration of 1 mM ATP.
(§2) To determine which PIK-related kinases could be pulled-down with BW, we performed several affinity precipitations after incubation with BW concentrations ranging from 0.5-50 μM. As controls, we used the […] compound (negative) and nuclear extracts (positive). We probed a Western blot for the precipitation of ATR, ATM and DNA-PKcs and received a pattern of different sensibility that is related to the IC50s observed in vitro. DNA-PKcs is the most sensitive member to precipitation with BW of the PIK-related kinases we tested and can be precipitated at concentrations as low as 0.5 μM. ATM also seems to be more sensitive to precipitation than ATR, and starts to give a signal at 2 μM. ATR is the least sensitive kinase to precipitation tested, and starts to pull-down at 10 μM.
(§3) Therefore, we performed pull-down reactions with 30 μM biotin-wortmannin using HeLa nuclear extract. […] The proteins that were pull-down were analyzed via Western blot detecting DNA-PKcs, ATM and biotin-wortmannin.

DNA-PKcs = target: T2, DNA-PKcs (Homo sapiens, UniProt P78527); assay: Streptavidin-sepharose pull-down from nuclear extract, DNA-PKcs; assay type: binding; settings: HeLa nuclear extract; 150 μM wortmannin or 1 mM ATP
T2 construct: we used nuclear extract for our pull-down experiments; endogenous in cells
Method: as §1, §2, §3

PI 3-kinase = settings: cited from earlier work; for fold less effective than wortmannin towards PI 3-kinase: relative to wortmannin
ATR = ATR (Homo sapiens, UniProt Q13535); settings: Sarkaria et al., 1998; cited from earlier work
[1] = Stability in buffer systems by thin layer chromatography; assay type: physicochemical; settings: most conditions tested (not 1 M Tris)
Method: For thin layer chromatography (TLC), Silica gel glass plates (0.25 mm) were used to separate different components in hexane:ethylacetate (1:2) as solvents. Components were visualized by illumination with long wave ultraviolet light and by dipping into an aqueous solution of ceric ammonium molybdate followed by heating.
Tris based (pH 7.5, 8)and Hepes (pH 7.5, 8) based buffer systems were tested for incubations for 30 min at 4° C. and 30° C.

HEK 293T cells = assay: Capability to enter intact cells (protein labeling after cell incubation); assay type: cell-based, human; settings: 50 μM, 45 min
Method: The media and the inhibitory compound were premixed to reduce toxicity and incubated on the cells for 45 min or 1 h.
After 45 min, the cells were harvested and then lysates were generated. 100 μg of protein was separated on a 5-12.5% gradient gel, transferred to PVDF membrane and either analyzed with α-wortmannin sera or with streptavidin HRP to detect biotin-wortmannin.

Flag-tagged ATR = target: T3, Flag-tagged ATR (Homo sapiens, UniProt Q13535); assay: ATR kinase assay (GST-RAD17 substrate); assay type: biochemical; settings: 3-4 experiments, read from a graph
T3 construct: expressed in transfected cells
Method: After the incubation, the beads were washed in 500 μl kinase buffer.
ATR kinase assay: ATR precipitates were incubated with 27.5 μl of kinase buffer+1 μl 32P γ-ATP (1 μCi)+1.5 μl GST-RAD17 substrate (1.5 μg) for exactly 15 min at 30° C. The reactions were stopped by adding 10 μl of 6×SDS sample buffer and boiling the sample for 8 min at 95° C.
The dried gel was either exposed overnight to Biomax film or in the phosphoimager cassette for several hours and quantified using the program Image Quant v1.2 from Molecular Dynamics, Sunnyvale, Calif. (USA). Curves were plotted in the program KaleidaGraph v3.5 (Synergy Software, Reading, Pa.) using the Hill equation. […]
After the kinase reactions were carried out, the samples were separated on a 5-12.5% gradient gel. […] Flag-ATR and labeling with biotin-wortmannin were detected by chemiluminescence using α-Flag M5 or streptavidin HRP antibody. The lower half of the gel was stained with coomassie, dried and analyzed by autoradiography.
Analysis of substrate phosphorylation by autoradiography allows evaluation of the kinase activity that remains after incubation with different amounts of biotin-wortmannin. […] In the lower lane, the amount of Flag-tagged ATR was determined by using a Flag specific antibody. This signal was used to normalize for equal loading to generate quantitative data. […]

T3 sequence (Q13535 whole entry): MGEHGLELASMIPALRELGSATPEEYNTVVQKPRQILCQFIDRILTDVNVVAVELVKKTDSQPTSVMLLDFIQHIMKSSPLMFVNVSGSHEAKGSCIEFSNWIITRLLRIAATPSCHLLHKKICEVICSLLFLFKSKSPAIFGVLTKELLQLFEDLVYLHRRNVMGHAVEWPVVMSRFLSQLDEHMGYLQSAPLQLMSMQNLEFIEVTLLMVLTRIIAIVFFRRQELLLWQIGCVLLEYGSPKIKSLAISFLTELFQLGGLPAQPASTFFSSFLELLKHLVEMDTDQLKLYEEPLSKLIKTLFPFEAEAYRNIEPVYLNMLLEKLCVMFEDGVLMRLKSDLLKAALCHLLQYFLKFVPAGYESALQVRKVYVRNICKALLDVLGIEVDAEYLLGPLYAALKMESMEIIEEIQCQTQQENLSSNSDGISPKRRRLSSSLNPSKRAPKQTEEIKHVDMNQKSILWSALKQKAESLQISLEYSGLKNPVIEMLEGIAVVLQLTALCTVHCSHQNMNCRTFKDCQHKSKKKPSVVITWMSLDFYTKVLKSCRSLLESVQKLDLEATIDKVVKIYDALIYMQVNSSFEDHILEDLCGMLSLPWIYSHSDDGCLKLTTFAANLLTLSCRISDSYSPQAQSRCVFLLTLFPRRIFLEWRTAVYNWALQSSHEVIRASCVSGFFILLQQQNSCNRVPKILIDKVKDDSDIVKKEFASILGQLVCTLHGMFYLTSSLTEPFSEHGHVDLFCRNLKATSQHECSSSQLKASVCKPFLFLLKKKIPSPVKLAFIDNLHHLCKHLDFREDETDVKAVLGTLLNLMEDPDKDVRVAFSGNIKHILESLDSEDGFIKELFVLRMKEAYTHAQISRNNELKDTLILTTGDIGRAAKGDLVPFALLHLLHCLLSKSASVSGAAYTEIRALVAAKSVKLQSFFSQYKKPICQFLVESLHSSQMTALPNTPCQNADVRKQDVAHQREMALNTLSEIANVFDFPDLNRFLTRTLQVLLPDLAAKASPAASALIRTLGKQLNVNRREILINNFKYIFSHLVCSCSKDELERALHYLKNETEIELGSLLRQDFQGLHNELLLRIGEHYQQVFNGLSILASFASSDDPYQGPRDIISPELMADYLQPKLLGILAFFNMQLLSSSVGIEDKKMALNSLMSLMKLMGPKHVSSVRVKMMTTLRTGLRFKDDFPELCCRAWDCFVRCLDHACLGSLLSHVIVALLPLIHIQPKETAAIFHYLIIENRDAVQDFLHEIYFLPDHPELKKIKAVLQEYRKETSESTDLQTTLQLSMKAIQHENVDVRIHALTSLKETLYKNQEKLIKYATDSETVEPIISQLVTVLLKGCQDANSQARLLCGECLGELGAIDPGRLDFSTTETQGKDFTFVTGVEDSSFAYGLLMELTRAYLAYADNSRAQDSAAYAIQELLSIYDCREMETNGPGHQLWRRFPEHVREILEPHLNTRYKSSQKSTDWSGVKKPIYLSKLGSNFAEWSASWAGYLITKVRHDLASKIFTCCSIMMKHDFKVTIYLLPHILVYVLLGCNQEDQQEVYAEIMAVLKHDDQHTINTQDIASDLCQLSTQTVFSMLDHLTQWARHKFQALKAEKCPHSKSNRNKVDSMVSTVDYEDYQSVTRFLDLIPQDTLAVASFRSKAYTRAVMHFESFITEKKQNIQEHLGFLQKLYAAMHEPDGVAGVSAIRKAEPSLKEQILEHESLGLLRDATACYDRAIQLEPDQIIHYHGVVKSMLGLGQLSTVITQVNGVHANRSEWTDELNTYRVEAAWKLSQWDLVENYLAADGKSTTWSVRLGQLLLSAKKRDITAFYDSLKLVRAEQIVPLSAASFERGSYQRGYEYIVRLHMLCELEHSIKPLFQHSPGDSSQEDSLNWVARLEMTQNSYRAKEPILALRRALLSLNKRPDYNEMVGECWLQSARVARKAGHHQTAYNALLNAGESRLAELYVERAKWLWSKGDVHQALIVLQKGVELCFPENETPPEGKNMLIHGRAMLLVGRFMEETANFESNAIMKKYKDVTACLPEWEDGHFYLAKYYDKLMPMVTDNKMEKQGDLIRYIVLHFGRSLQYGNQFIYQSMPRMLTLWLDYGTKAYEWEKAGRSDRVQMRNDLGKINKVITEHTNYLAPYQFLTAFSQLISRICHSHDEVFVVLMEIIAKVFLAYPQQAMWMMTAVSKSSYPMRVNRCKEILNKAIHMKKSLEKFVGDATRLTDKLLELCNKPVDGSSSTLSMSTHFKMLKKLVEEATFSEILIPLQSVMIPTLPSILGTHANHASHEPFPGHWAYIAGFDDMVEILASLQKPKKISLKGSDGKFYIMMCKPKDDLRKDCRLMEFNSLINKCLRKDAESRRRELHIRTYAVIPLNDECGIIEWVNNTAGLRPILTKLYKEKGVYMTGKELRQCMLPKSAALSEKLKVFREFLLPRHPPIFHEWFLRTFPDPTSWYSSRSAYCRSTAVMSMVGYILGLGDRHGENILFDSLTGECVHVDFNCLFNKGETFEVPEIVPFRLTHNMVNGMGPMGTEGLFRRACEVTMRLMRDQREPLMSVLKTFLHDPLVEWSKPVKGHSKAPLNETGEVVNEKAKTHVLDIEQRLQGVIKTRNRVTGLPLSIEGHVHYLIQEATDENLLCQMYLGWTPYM
Sequence of ATR (Q13535 whole entry): as above

For `O=c1cc(N2CCOCC2)oc2c(-c3ccccc3)cccc12` [LY294002, 2-(4-morpholinyl)-S-phenyl-4H-1-benzopyran-4-one], the IC50 (mTOR (FRAP)) is listed as about 3000 nM.

With `Nc1ncnc2c1ncn2[C@@H]1O[C@H](COP(=O)(O)OP(=O)(O)OP(=O)(O)O)[C@@H](O)[C@H]1O` [ATP] the “effect of pretreatment on pull-down of ATM with 30 μM biotin-wortmannin” value (ATM) was “did not show an effect” and the “effect of pretreatment on pull-down of DNA-PKcs with 30 μM biotin-wortmannin” value (DNA-PKcs) was “did not show an effect”.

For `COCC1OC(=O)c2coc3c2C1(C)C1=C(C3=O)C2CCC(=O)C2(C)CC1O` (stereo not shown) [11-O-desacetyl wortmannin], the IC50 (PI 3-kinase) is listed as 16.7 nM, the “fold less effective than wortmannin towards PI 3-kinase” value (PI 3-kinase) is listed as 4 fold and the “fold less effective than wortmannin towards PI 3-kinase” value (PI 3-kinase; listed as 0-11-desacetylwortmannin) is listed as “about four”.

For `COC[C@H]1OC(=O)c2coc3c2[C@@]1(C)C1=C(C3=O)[C@@H]2CCC(=O)[C@@]2(C)C[C@H]1OC(C)=O` [wortmannin, Wortmannin], the IC50 (ATR) is listed as 1800 nM, the “time in large part stable in buffer” value [1] is listed as “at least 30 min” and the “capability to enter into intact cells” value (HEK 293T cells) is listed as “capable to enter into intact cells”. For the same molecule, the IC50 (Flag-tagged ATR) was 1800 nM.

From US20030194749A1 (priority 2002, published 2003)
